Measurements as given in article PMC12508156, “Non-canonical dihydrolipoyl transacetylase promotes chemotherapy resistance via mitochondrial tetrahydrofolate signaling” (Nature Communications, 2025).
Where “and” joins values, the source holds several entries; their conditions need not be identical. Equal entries are not always repeated.

Legend:
[1] = tested on: DLAT; assay: DLAT mRNA, DLAT protein and cell viability after elesclomol; assay type: cell-based, human; conditions: increasing doses up to 1 µM for 48 h
Experimental: Elesclomol was administered at increasing doses up to 1 µM for 48 h. The levels of DLAT mRNA (a), DLAT protein (b), and cell viability (c) are shown. Error bars represent the standard deviation (SD) and from 3 independent biological replicates for (a,c). P values were obtained by one-way ANOVA. 1 (1 picture or pasted object on this page, not shown here)

[2] = tested on: cisplatin-resistant cancer cells; assay: Drug sensitivity of cancer cells (apoptosis, cell viability); assay type: cell-based, human; conditions: for sensitization of cancer cells to the agent by impairment of DLAT: KB-3-1cisR and A549cisR, DLAT knockdown vs control, sublethal doses 48 h: 50 μM carboplatin, 10 nM gemcitabine, 10 μM etoposide, 0.5 μM pemetrexed, 3 nM paclitaxel, 1 μM erlotinib; for sensitization of cancer cells to cisplatin treatment: 10 μM inhibitor and sublethal doses of cisplatin, 48 h (Fig. 4e, f)
Experimental: Cell viability was determined using the CellTiter-Glo Luminescent Cell Viability Assay. […] Subsequently, the cells were cultured in complete medium for an additional 10 days, and the resulting colonies were visualized by staining with crystal violet and quantified using ImageJ software. For cell cycle analysis, cells fixed with 70% ethanol were stained with RNase A (100 µg/mL) and propidium iodide (50 μg/ml) for 30 min at 37 °C, and DNA content distribution was measured using flow cytometry (BD Symphony A3) and analyzed with FlowJo software (v10.9). Apoptotic cell death was assessed via FITC-conjugated annexin V and propidium iodide staining.

[3] = tested on: MTHFD1; conditions: concurrently inhibiting the ubiquitous isozyme MTHFD1; cited from earlier work
Excerpt: Inhibitors targeting components of PDC include a non-selective PDK inhibitor, dichloroacetate (DCA)[39]. However, to the best of our knowledge, no specific inhibitor is available to target non-classical DLAT signaling that is independent of PDC. LY345899 and DS18561882 have been reported to be MTHFD2 inhibitors, and are a folate analog and a tricyclic coumarin-based compound that competitively binds to the substrate binding site[40]–[42]. However, these inhibitors are unselective, concurrently inhibiting the ubiquitous isozyme MTHFD1 and thus posing a potential safety risk; therefore, further ...

[4] = tested on: A549cisR cells; assay: Apoptotic cell death (annexin V/PI staining); assay type: cell-based, human; conditions: A549cisR; 5 mM DCA and/or sublethal cisplatin, 48 h; n=1-3: biological replicates
[5] = tested on: KB-3-1cisR cells; assay: Apoptotic cell death (annexin V/PI staining); assay type: cell-based, human; conditions: KB-3-1cisR; 5 mM DCA and/or sublethal cisplatin, 48 h; n=1-3: biological replicates
[6] = tested on: MT-CO2; assay: MT-CO1, MT-CO2, COXIV expression (immunoblot, quantitative RT-PCR); assay type: cell-based, human
Experimental: Apoptosis (top) and cell viability (bottom) were determined. 10-formyl-THF rescues cisplatin-resistant cell growth (c) and MT-CO2 expression (d) in cells lacking K44 MTHFD2 acetylation. Cisplatin-treated cells expressing K44R MTHFD2 were subjected to 10 μM 10-formyl-THF for 24 h followed by annexin V staining, cell viability assay, and assessment of MT-CO1, MT-CO2, and COXIV levels by immunoblotting and quantitative RT-PCR. Cells expressing the acetyl-mimetic mutant form of MTHFD2 K44Q were included for comparison. Effect of MT-CO2 overexpression on cisplatin-resistant cell growth in cells lacking K44 MTHFD2 acetylation (e) or DLAT (f) by K44R MTHFD2 expression or DLAT knockdown, respectively. Data are mean ± SD from 4 independent biological replicates for (d) and 3 for (a–c, e, f). P values were determined by one-way ANOVA. Source data are provided as a Source Data file.
Supplementary Fig. 8: POLRMT is required for 10-formyl-THF-induced MT-CO2 expression in cisplatin-resistant cells. […]
absence of 10-formyl-THF (10 µM) for 24 h. The levels of MT-CO2, mitochondrial transcription factors, and myc-MTHFD2 were assessed by immunoblotting. […] MT-CO2 mRNA and protein levels were assessed by quantitative RT-PCR and immunoblotting, respectively. […] P values were determined by one-way ANOVA. […]

[7] = tested on: Bcl-xL; assay: Immunoblotting of apoptosis-associated proteins; assay type: cell-based, human; conditions: NAC in cisplatin-treated DLAT knockdown cells (Fig. 3h)
Experimental: Cellular ROS (upper), apoptosis (middle), and cell viability (lower) were measured. […] Mito-TEMPO (10 μM) or flag-tagged catalase was introduced in cisplatin-treated cells. Mitochondrial ROS and cytoplasmic hydrogen peroxide were measured by mitoSOX staining and luminescence detection, respectively. g Immunoblotting of apoptosis-associated proteins. […] Fold changes were obtained by comparing the DLAT knockdown group to the control group. […] P values were determined by two-tailed Student’s t-test (a, i) and one-way ANOVA for the rest. Source data are provided as a Source Data file.

[8] = tested on: A549cisR and KB-3-1cisR cells; assay: Senescence (p21) and autophagy (LC3-I/II, p62) markers, cell cycle; assay type: cell-based, human; conditions: 0.5 mM NAC, 24 h, DLAT shRNA and sublethal cisplatin
Experimental: 1cisR cells were transduced with DLAT-targeting shRNA and treated with sublethal doses of […]
antioxidant N-acetylcysteine (NAC). (a) Western blot analysis of p21 waf1/cip1 expression as a marker of cellular senescence. (b) Western blot analysis of LC3-I/II and p62 as markers of autophagy. (c) Cell cycle distribution was assessed by flow cytometry following propidium iodide staining. (d) Intracellular ROS levels were measured using the H2DCFDA probe. Error bars represent SD and are from 3 independent biological replicates for (c,d). P values were determined by one-way ANOVA.
(1 picture or pasted object on this page, not shown here)

Structure (SMILES): CN(NC(=O)CC(=O)NN(C)C(=S)c1ccccc1)C(=S)c1ccccc1 [elesclomol]
- DLAT levels (gene and protein) [1]: did not alter

Structure (SMILES): N.N.O=C([O-])C1(C(=O)[O-])CCC1.[Pt+2] [carboplatin]
- sensitization of cancer cells to the agent by impairment of DLAT [2]: sensitized

Structure (SMILES): CC1(C)CC(NC(=O)C[P+](c2ccccc2)(c2ccccc2)c2ccccc2)CC(C)(C)N1[O] [mito-TEMPO]
- elevated apoptosis and attenuated cell viability induced by DLAT loss and cisplatin ([2]; Mito-TEMPO 10 μM (Fig. 3e)): reversed

Structure (SMILES): Nc1nc2c(c(=O)[nH]1)N1C(=O)N(c3ccc(C(=O)N[C@@H](CCC(=O)O)C(=O)O)cc3)CC1CN2 (stereo partly drawn) [LY345899]
- sensitization of cancer cells to cisplatin treatment [2]: sensitized
- selectivity versus isozyme MTHFD1 [3]: unselective

Structure (SMILES): O=C(O)C(Cl)Cl [DCA, dichloroacetate]
- Apoptotic death [4]: 9.2 and 6.2
- survival of cisplatin-resistant cancer cells ([2]; 5 mM DCA and cisplatin, 48 h, A549cisR and KB-3-1cisR (Fig. 2e)): no significant effect
- Apoptotic death [5]: 2.5 and 4.8 and 4.4

Structure (SMILES): Nc1nc2c(c(=O)[nH]1)NC(CN(C=O)c1ccc(C(=O)N[C@@H](CCC(=O)O)C(=O)O)cc1)CN2 (stereo partly drawn) [10-formyl-THF, 10-Formyltetrahydrofolate]
- attenuated cell viability and elevated apoptosis induced by cisplatin and DLAT loss ([2]; supplementation at physiological concentrations, 48 h, DLAT knockdown cells under sublethal cisplatin (Fig. 6a, b)): reversed
- MT-CO2 expression in MTHFD2 K44R cells ([6]; 10 μM 10-formyl-THF, 24 h, cisplatin-treated cells (Fig. 6d)): restored

Structure (SMILES): Nc1nc2[nH]cc(CCc3ccc(C(=O)N[C@@H](CCC(=O)O)C(=O)O)cc3)c2c(=O)[nH]1 [pemetrexed]
- sensitization of cancer cells to the agent by impairment of DLAT [2]: sensitized

Structure (SMILES): CC(=O)O[C@H]1C(=O)[C@@]2(C)[C@H]([C@H](OC(=O)c3ccccc3)[C@]3(O)C[C@H](OC(=O)[C@H](O)[C@@H](NC(=O)c4ccccc4)c4ccccc4)C(C)=C1C3(C)C)[C@]1(OC(C)=O)CO[C@@H]1C[C@@H]2O [paclitaxel]
- sensitization of cancer cells to the agent by impairment of DLAT [2]: sensitized

Structure (SMILES): C#Cc1cccc(Nc2ncnc3cc(OCCOC)c(OCCOC)cc23)c1 [erlotinib]
- sensitization of cancer cells to the agent by impairment of DLAT [2]: not

Structure (SMILES): Cc1ccccc1-c1cc(=O)oc2cc(OC(C)C(=O)N(C)C)ccc12 (stereo not drawn) [IMT1]
- MT-CO2 expression induced by 10-formyl-THF ([6]; IMT1 5 µM and 10-formyl-THF 10 µM, 24 h (Supplementary Fig. 8b)): mitigated

Structure (SMILES): COc1cc([C@@H]2c3cc4c(cc3[C@@H](O[C@@H]3O[C@@H]5CO[C@@H](C)O[C@H]5[C@H](O)[C@H]3O)[C@H]3COC(=O)[C@H]23)OCO4)cc(OC)c1O [etoposide]
- sensitization of cancer cells to the agent by impairment of DLAT [2]: sensitized

Structure (SMILES): Nc1ccn([C@@H]2O[C@H](CO)[C@@H](O)C2(F)F)c(=O)n1 [gemcitabine]
- sensitization of cancer cells to the agent by impairment of DLAT [2]: sensitized

Structure (SMILES): CC(=O)N[C@@H](CS)C(=O)O [NAC, N-acetyl-L-cysteine]
- cisplatin-mediated ROS and apoptosis in DLAT knockdown cells ([2]; NAC 0.5 mM, cisplatin-treated DLAT knockdown cells (Fig. 3d)): significantly lowered
- Bcl-xL expression [7]: partially restored
- senescence, autophagy, or cell cycle progression [8]: did not alter

Structure (SMILES): Cc1c(N2CCN(C)[C@@H](C)C2)ccc2c3c(c(=O)oc12)CN(C(=O)c1ccc(NS(C)(=O)=O)c(OC(F)(F)F)c1)CC3 [DS18561882]
- sensitization of cancer cells to cisplatin treatment [2]: sensitized
- selectivity versus isozyme MTHFD1 [3]: unselective
